Laboratory results reported in article PMC7767178 (International Journal of Molecular Sciences, 2020).
In brackets after ≈: the same amount, converted by molar mass. Read-outs that look alike come from different tables or passages of the source.

Legend:
[1] = system: A. veronii ACCC61732; assay: Resistance development, 30 serial passages; assay type: cell-based; details: A. veronii ACCC61732, 30 passages (30 days)
Description: The development of bacterial resistance of peptides was performed by the MIC assays. […] GEN, CIP, and PMB were used as controls. […] The MIC values were measured as described above. The serial passaging was repeated for 30 days.

[2] = system: S. hyicus 437-2; assay type: cell-based
[3] = system: E. coli CVCCO157; assay: MIC, microtiter broth dilution; assay type: cell-based; details: 37 °C, 16–18 h, three experiments
Text: (§1) All experiments were repeated three times.

[4] = system: A. veronii ACCC61732; assay: Inner membrane permeability, PI staining, flow cytometry; assay type: cell-based
Description: To analyze effects of peptides on the inner membrane, A. veronii ACCC61732 cells were cultured to mid-log phase at 37 °C in MHB medium, washed thrice with PBS, and resuspended in the PBS buffer to 1 × 10^8 CFU/mL. […] After fixation with PI, the samples were detected by a fluorescent inverted microscope and FACS Calibur Flow Cytometer (BD, San Jose, CA, USA), respectively. Cell Quest Pro software (BD, San Jose, CA, USA) was used for the data analysis.

[5] = system: A. veronii ACCC61732; assay: Outer membrane permeabilization, NPN assay; assay type: cell-based; details: NPN fluorescence, 1×–4× MIC
Description: The outer membrane permeabilization abilities of peptides were determined using the fluorescent NPN assay. Mid-log phase A. veronii ACCC61732 was collected by centrifugation, washed twice, and then suspended in N-2-hydroxyethylpiperazine-n-2-ethane sulfonic acid (HEPES) buffer (pH 7.4) to an OD600nm = 0.4. […] Fluorescence intensity was recorded until no further increase with a microplate reader (excitation/emission, 328/438 nm).

[6] = system: IL-1β; assay: Serum cytokine, ELISA, peritonitis model; assay type: in vivo; details: 5 μmol/kg, 24 h after treatment, range over mice
Description: (§2) Sera and organs (livers, kidneys, spleens, and lungs) were collected from the mice at 24 h post-treatment. The organs were homogenized in sterile PBS to evaluate bacterial translocation by colony counting. The levels of cytokines (TNF-α, IL-1β, IL-6, and IL-10) in sera were detected using the ELISA kits.

[7] = system: TNF-α; assay: Serum cytokine, ELISA, peritonitis model; assay type: in vivo; details: 5 μmol/kg, 24 h after treatment, range over mice
Description: as §2

[8] = system: IL-6; assay: Serum cytokine, ELISA, peritonitis model; assay type: in vivo; details: 5 μmol/kg, 24 h after treatment, range over mice
Description: as §2

[9] = system: IL-10; assay: Serum cytokine, ELISA, peritonitis model; assay type: in vivo; details: 5 μmol/kg, 24 h after treatment, range over mice
Description: as §2

[10] = system: A. veronii ACCC61732; assay: Time-killing curves; assay type: cell-based; details: 2× MIC; 1 × 10^5 CFU/mL, colony counting, 0–24 h
Description: Time-killing curves were performed as previously described. […] The sample of 100 μL was taken from each flask at 0, 0.5, 1, 2, 4, 6, 8, 10, 20, and 24 h, respectively, and serially diluted for colony counting. PBS and CIP were used as the negative and positive control, respectively.

[11] = system: A. veronii; assay: MIC, range over strains; assay type: cell-based; details: range over the strains of Table 2
Text: as §1

[12] = system: Escherichia coli; assay: MIC, range over strains; assay type: cell-based; details: range over the strains of Table 2
Text: as §1

[13] = system: A. veronii ACCC61732 in biofilm; assay type: cell-based; details: 2 h
Description: The mid-log phase A. veronii ACCC61732 cells (1 × 10^8 CFU/mL) were inoculated into in the 96-well plates and cultured for 24 h at 37 °C. The plates were washed twice with PBS. […] PBS was used as the negative control. The plates were treated with ultrasound for 5 min and the viable bacteria were counted on the TSA plates.

[14] = system: E. coli CVCC25922; assay: microbe, parasite or virus in culture; assay type: cell-based
Text: as §1

[15] = system: S. enteritidis CVCC3377; assay: microbe, parasite or virus in culture; assay type: cell-based
Text: as §1

[16] = system: S. pullorum CVCC533; assay: microbe, parasite or virus in culture; assay type: cell-based
Text: as §1

[17] = system: E. coli CVCC1515; assay: microbe, parasite or virus in culture; assay type: cell-based; details: E. coli CVCC1515, broth dilution, 37 °C, 16–18 h, three experiments
Text: as §1

[18] = system: S. pullorum CVCC1789; assay: microbe, parasite or virus in culture; assay type: cell-based
Text: as §1

[19] = system: S. pullorum CVCC1809; assay: microbe, parasite or virus in culture; assay type: cell-based
Text: as §1

[20] = system: Staphylococcus aureus ATCC43300; assay: microbe, parasite or virus in culture; assay type: cell-based; details: Staphylococcus aureus ATCC43300, broth dilution, 37 °C, 16–18 h, three experiments
Text: as §1

[21] = system: Candida albicans CMCC98001; assay: microbe, parasite or virus in culture; assay type: cell-based; details: CMCC98001
Text: as §1

[22] = system: A. veronii X-1-06909; assay: microbe, parasite or virus in culture; assay type: cell-based
Text: as §1

[23] = system: Escherichia coli CVCC195; assay: microbe, parasite or virus in culture; assay type: cell-based
Text: as §1

[24] = system: A. veronii ACCC61732; assay: Post-antibiotic effect (PAE); assay type: cell-based; details: 2 h exposure, 1000-fold dilution, 37 °C, triplicate
Description: The samples were taken from flasks for counting each hour until bacterial cultures became turbid. The untreated bacteria severed as controls. The PAE was calculated using the following equation: PAE = T − C, where T is the time (h) required for the CFU in the test culture to increase by 10-fold from the count immediately after the drug removal and C is the corresponding time (h) for the control. The experiment was performed in triplicate.

In the case of `CC(C)[C@H]1NC(=O)CNC(=O)[C@@H](CC(N)=O)NC(=O)[C@@H](CCCNC(=N)N)NC(=O)[C@@H](Cc2ccc(O)cc2)NC(=O)[C@@H](C(C)C)NC(=O)[C@H](NC(=O)[C@H](NC(=O)[C@@H](CC(N)=O)NC(=O)[C@@H](Cc2c[nH]c3ccccc23)NC(=O)[C@@H](C)NC(=O)[C@@H](Cc2ccccc2)NC(=O)CN)C(C)C)CSSC[C@H](C(=O)N[C@H](Cc2c[nH]cn2)C(=O)N[C@H](CCCNC(=N)N)C(=O)N[C@H](CCCNC(=N)N)C(=O)N[C@H](C)C(=O)N[C@H](CC(N)=O)C(N)=O)NC(=O)[C@@H](C(C)C)NC(=O)[C@@H](CCCNC(=N)N)NC1=O` [DN6NH2], the “increase of MIC after 30 serial passages” value [1] is reported as “seven-fold”, the MIC [2] is reported as 3.23 µM and the MIC ([2]; S. hyicus 437-2 (clinical isolate, pig farm), broth dilution, 37 °C, 16–18 h, three experiments) is reported as 8 µg/mL. For the same compound, the MIC [3] was 4 µg/mL, the MIC ([3]; read-out: MIC) was 1.62 µM and the “Permeability (PI-positive cells)” value ([4]; 1× MIC, 0.5 h) was 0%. The “Permeability (PI-positive cells)” value ([4]; 1× MIC, 2 h) was 3.42%, the “Permeability (PI-positive cells)” value ([4]; 2× MIC, 0.5 h) was 9.16% and the “Permeability (PI-positive cells)” value ([4]; 2× MIC, 2 h) was 9.83%. For the same compound, the “Permeability (PI-positive cells)” value ([4]; 4× MIC, 0.5 h) was 41.93%, the “Permeability (PI-positive cells)” value ([4]; 4× MIC, 2 h) was 33.73% and the “ability to penetrate the outer membrane” value [5] was “higher ability to penetrate the outer membrane than N6NH2”. For the same compound, the “serum level of IL-1β” value [6] was 8.17 to 25.94 pg/mL, the “serum level of TNF-α” value [7] was 40.02 to 66.20 pg/mL and the “serum level of IL-6” value [8] was 104.48 to 115.43 pg/mL. For the same compound, the “serum level of IL-10” value [9] was 15.94 to 25.46 pg/mL, the “time to completely kill A. veronii ACCC61732” value [10] was no more than 1 h and the “MIC values against A. veronii” value [11] was 1.62 to 25.86 µM. For the same compound, the “MIC values against Escherichia coli” value [12] was 1.62 to 3.23 µM, the “bacteria in biofilm killed” value [13]; 8 was 64.22% and the “bacteria in biofilm killed” value [13]; 16 was 66.79%. It also gave an MIC ([14]; CVCC25922, read-out: MIC) of 3.23 µM, an MIC ([14]; E. coli CVCC25922, broth dilution, 37 °C, 16–18 h, three experiments) of 8 µg/mL and an MIC ([15]; CVCC3377, read-out: MIC) of 0.81 µM. For the same compound, the MIC ([15]; S. enteritidis CVCC3377, broth dilution, 37 °C, 16–18 h, three experiments) was 2 µg/mL, the MIC ([16]; CVCC533, read-out: MIC) was 6.46 µM and the MIC ([16]; S. pullorum CVCC533, broth dilution, 37 °C, 16–18 h, three experiments) was 16 µg/mL. It also gave an MIC [17] of 4 µg/mL, an MIC ([17]; read-out: MIC) of 1.62 µM and an MIC ([18]; CVCC1789, read-out: MIC) of 6.46 µM. For the same compound, the MIC ([18]; S. pullorum CVCC1789, broth dilution, 37 °C, 16–18 h, three experiments) was 16 µg/mL, the MIC ([19]; CVCC1809, read-out: MIC) was 3.23 µM and the MIC ([19]; S. pullorum CVCC1809, broth dilution, 37 °C, 16–18 h, three experiments) was 8 µg/mL. For the same compound, the MIC [20] was 4 µg/mL, the MIC ([20]; read-out: MIC) was 1.62 µM and the MIC [21] was 128 µg/mL (≈ 51.7 µM). It also gave an MIC ([22]; A. veronii X-1-06909, broth dilution, 37 °C, 16–18 h, three experiments) of 32 µg/mL, an MIC ([22]; read-out: MIC) of 12.93 µM and an MIC ([23]; CVCC195, read-out: MIC) of 3.23 µM. The MIC ([23]; Escherichia coli CVCC195, broth dilution, 37 °C, 16–18 h, three experiments) was 8 µg/mL, the PAE ([24]; 1× MIC) was 0.68 ± 0.01 h and the PAE ([24]; 2× MIC) was 1.13 ± 0.11 h. It also gave a PAE ([24]; 4× MIC) of 3.36 ± 0.19 h.
